Holding throughout (experiment): cells
Holding throughout (type): cell-based, human

Experiment [1] concerns TIB-202 cell line.
In experiment [2] the test system is KOPN8 cell line.
Experiment [3] relates to MOLT-3 cell line.
Experiment [4] relates to B1 cell line.
For experiment [5], the system named is SEM cell line.

Some results are limits rather than exact numbers.

On to `OC[C@H]1O[C@@H](n2cnc3c2NC=NC[C@H]3O)C[C@@H]1O` [Pentostatin], for which the IC50 (as a rule, the point on the concentration scale where inhibition reaches its midpoint) was more than 5 µM in experiment [1] (Homo sapiens, 96 h); more than 5 µM in experiment [2] (Homo sapiens, KOPN-8, 96 h); more than 10 µM in experiment [3] (Homo sapiens, MOLT-3, 96 h); more than 10 µM in experiment [4] (Homo sapiens, 96 h); more than 10 µM in experiment [5] (Homo sapiens, 96 h).

`O=C(CCBr)N1CCN(C(=O)CCBr)CC1` [Pipobroman]: the 50% inhibitory concentration (IC50) was 4.34 µM in experiment [1] (Homo sapiens, 96 h); 0.389 µM in experiment [2] (Homo sapiens, KOPN-8, 96 h); 6.35 µM in experiment [3] (Homo sapiens, MOLT-3, 96 h); 2.63 µM in experiment [4] (Homo sapiens, 96 h); 4.32 µM in experiment [5] (Homo sapiens, 96 h).

On to `CNNCc1ccc(C(=O)NC(C)C)cc1` [Procarbazine], for which the IC50 is more than 5 µM in experiment [1] (Homo sapiens, 96 h); more than 5 µM in experiment [2] (Homo sapiens, KOPN-8, 96 h); more than 10 µM in experiment [3] (Homo sapiens, MOLT-3, 96 h); more than 10 µM in experiment [4] (Homo sapiens, 96 h); more than 10 µM in experiment [5] (Homo sapiens, 96 h).

Take `O=C(c1ccc(OCCN2CCCCC2)cc1)c1c(-c2ccc(O)cc2)sc2cc(O)ccc12` [Raloxifene]: the IC50 in experiment [1] (Homo sapiens, 96 h) is more than 10 µM; in experiment [2] (Homo sapiens, KOPN-8, 96 h), 8.3 µM; in experiment [3] (Homo sapiens, MOLT-3, 96 h), more than 10 µM; in experiment [4] (Homo sapiens, 96 h), more than 10 µM; in experiment [5] (Homo sapiens, 96 h), 4.44 µM.

As to `CO[C@H]1C[C@@H]2CC[C@@H](C)[C@@](O)(O2)C(=O)C(=O)N2CCCC[C@H]2C(=O)O[C@H]([C@H](C)C[C@@H]2CC[C@@H](O)[C@H](OC)C2)CC(=O)[C@H](C)/C=C(\C)[C@@H](O)[C@@H](OC)C(=O)[C@H](C)C[C@H](C)/C=C/C=C/C=C/1C` [Rapamycin], the IC50 was 7.05 µM in experiment [1] (Homo sapiens, 96 h); less than 0.01 µM in experiment [2] (Homo sapiens, KOPN-8, 96 h); less than 0.01 µM in experiment [3] (Homo sapiens, MOLT-3, 96 h); 0.00804 µM in experiment [4] (Homo sapiens, 96 h); less than 0.01 µM in experiment [5] (Homo sapiens, 96 h).

Take `CNC(=O)c1cc(Oc2ccc(NC(=O)Nc3ccc(Cl)c(C(F)(F)F)c3)cc2)ccn1` [Sorafenib]: the concentration for half-maximal inhibition (IC50) in experiment [1] (Homo sapiens, 96 h) is 5.95 µM; in experiment [2] (Homo sapiens, KOPN-8, 96 h) it was 3.86 µM; in experiment [3] (Homo sapiens, MOLT-3, 96 h), 9.63 µM; in experiment [4] (Homo sapiens, 96 h), 5.66 µM; in experiment [5] (Homo sapiens, 96 h), 1.54 µM.

Consider `CN(N=O)C(=O)N[C@@H](C=O)[C@@H](O)[C@H](O)[C@H](O)CO` [Streptozocin], for which the IC50 was more than 5 µM in experiment [1] (Homo sapiens, 96 h); more than 5 µM in experiment [2] (Homo sapiens, KOPN-8, 96 h); more than 10 µM in experiment [3] (Homo sapiens, MOLT-3, 96 h); more than 10 µM in experiment [4] (Homo sapiens, 96 h); more than 10 µM in experiment [5] (Homo sapiens, 96 h).

`CCN(CC)CCNC(=O)c1c(C)[nH]c(/C=C2\C(=O)Nc3ccc(F)cc32)c1C` [Sunitinib]: the IC50 in experiment [1] (Homo sapiens, 96 h) is 3.29 µM; in experiment [2] (Homo sapiens, KOPN-8, 96 h), 3.3 µM; in experiment [3] (Homo sapiens, MOLT-3, 96 h) it was more than 10 µM; in experiment [4] (Homo sapiens, 96 h), 5.36 µM; in experiment [5] (Homo sapiens, 96 h), 0.135 µM.

As to `Cn1nnc2c(C(N)=O)ncn2c1=O` [Temozolomide], the half-maximal inhibitory concentration (IC50) in experiment [1] (Homo sapiens, 96 h) was more than 5 µM; in experiment [2] (Homo sapiens, KOPN-8, 96 h), more than 5 µM; in experiment [3] (Homo sapiens, MOLT-3, 96 h), more than 10 µM; in experiment [4] (Homo sapiens, 96 h), more than 10 µM; in experiment [5] (Homo sapiens, 96 h) it was 9.12 µM.

For `O=C1CCC(N2C(=O)c3ccccc3C2=O)C(=O)N1` (stereo not shown) [Thalidomide], the IC50 in experiment [1] (Homo sapiens, 96 h) is more than 5 µM; in experiment [2] (Homo sapiens, KOPN-8, 96 h), more than 5 µM; in experiment [3] (Homo sapiens, MOLT-3, 96 h) it was more than 10 µM; in experiment [4] (Homo sapiens, 96 h) it was more than 10 µM; in experiment [5] (Homo sapiens, 96 h), more than 10 µM.

Take `Nc1nc2nc[nH]c2c(=S)[nH]1` [Thioguanine]: the IC50 in experiment [1] (Homo sapiens, 96 h) amounted to 5.2 µM; in experiment [2] (Homo sapiens, KOPN-8, 96 h), 4.5 µM; in experiment [3] (Homo sapiens, MOLT-3, 96 h), 7.05 µM; in experiment [4] (Homo sapiens, 96 h), 8.77 µM; in experiment [5] (Homo sapiens, 96 h), 0.938 µM.

For `S=P(N1CC1)(N1CC1)N1CC1` [Thiotepa], the IC50 in experiment [1] (Homo sapiens, 96 h) came to 5 µM; in experiment [2] (Homo sapiens, KOPN-8, 96 h) it was 1.96 µM; in experiment [3] (Homo sapiens, MOLT-3, 96 h), 3.01 µM; in experiment [4] (Homo sapiens, 96 h), 6.38 µM; in experiment [5] (Homo sapiens, 96 h), 3.78 µM.

With `CC1=C(/C=C/C(C)=C/C=C/C(C)=C/C(=O)O)C(C)(C)CCC1` [Tretinoin], the IC50 in experiment [1] (Homo sapiens, 96 h) is more than 5 µM; in experiment [2] (Homo sapiens, KOPN-8, 96 h), more than 5 µM; in experiment [3] (Homo sapiens, MOLT-3, 96 h) it was more than 10 µM; in experiment [4] (Homo sapiens, 96 h), more than 10 µM; in experiment [5] (Homo sapiens, 96 h) it was more than 10 µM.

For the molecule `Oc1ncc(N(CCCl)CCCl)c(O)n1` [Uracil mustard], the IC50 stood at 2.7 µM in experiment [1] (Homo sapiens, 96 h); 2.22 µM in experiment [2] (Homo sapiens, KOPN-8, 96 h); 9.66 µM in experiment [3] (Homo sapiens, MOLT-3, 96 h); 3.65 µM in experiment [4] (Homo sapiens, 96 h); 4.85 µM in experiment [5] (Homo sapiens, 96 h).

Regarding `O=P(O)(O)C(O)(Cn1ccnc1)P(=O)(O)O` [Zoledronic acid], the IC50 is more than 10 µM in experiment [1] (Homo sapiens, 96 h); more than 10 µM in experiment [2] (Homo sapiens, KOPN-8, 96 h); more than 10 µM in experiment [3] (Homo sapiens, MOLT-3, 96 h); more than 10 µM in experiment [4] (Homo sapiens, 96 h); more than 10 µM in experiment [5] (Homo sapiens, 96 h).

Bleomycin: the IC50 was 1.07 µM in experiment [1] (Table S1, TIB-202, 96 hours); 0.108 µM in experiment [2] (Table S1, KOPN8, 96 hours); 8.42 µM in experiment [3] (Table S1, MOLT-3, 96 hours); 2.92 µM in experiment [4] (Table S1, B1, 96 hours); less than 0.01 µM in experiment [5] (Table S1, SEM, 96 hours).

Carboplatin: the half-inhibitory concentration (IC50) in experiment [1] (Table S1, TIB-202, 96 hours) is 7.64 µM; in experiment [2] (Table S1, KOPN8, 96 hours), 5.14 µM; in experiment [3] (Table S1, MOLT-3, 96 hours), 6.97 µM; in experiment [4] (Table S1, B1, 96 hours), 7.73 µM; in experiment [5] (Table S1, SEM, 96 hours), more than 10 µM.

The values are drawn from publication PMC3176174 (OncoTargets and therapy, 2011).
